Data on 7 compounds can be found in ChEMBL document CHEMBL5260848, “Recent advancements in the development of bioactive pyrazoline derivatives” (Eur J Med Chem, 2020).

The IC50 is the point on the concentration scale where inhibition reaches its midpoint. As a reminder, the MIC is the lowest concentration that inhibits growth of the organism.

In assay [1] the test system is Plasmodium falciparum. The assay is described as follows: Antimalarial activity against chloroquine-sensitive Plasmodium falciparum 3D7. It counts as functional, organism-based.
Assay [2] has as its system Staphylococcus aureus. Description: Antibacterial activity against Staphylococcus aureus. It counts as functional.
The test system of assay [3] is Escherichia coli. The assay is described as follows: Antibacterial activity against Escherichia coli. It counts as functional.
Assay [4] relates to Rhizopus arrhizus. The assay is described as follows: Antifungal activity against Rhizopus oryzae. In kind it is functional.
In assay [5] the test system is MCF7. Description: Cytotoxicity against human MCF7 cells. In kind it is functional, cell-based.
In assay [6] the test system is MCF7. Description: Antitumor activity in human MCF7 cells xenografted in mouse model assessed as tumor volume measured after 12 days relative to control. Particulars: time 12 day. In kind it is functional.
Assay [7] has as its system Plasmodium falciparum. Description: Antimalarial activity against chloroquine-sensitive Plasmodium falciparum NF54 measured after 72 hrs by giemsa staining based analysis. It counts as functional, organism-based. To be noted: NF54, 72 h.
Assay [8] deals with Hemozoin. The assay is described as follows: Inhibition of Beta-hematin in Plasmodium berghei.
Assay [9] relates to Plasmodium falciparum. The assay is described as follows: In vivo antimalarial activity against Plasmodium berghei K173 infected in mouse assessed as reduction in parasitemia at 50 mg/kg, ip measured after 6 days by giemsa staining based microscopic analysis relative to control. It counts as functional. More on the design: scale not given: the % may be the effect or the level left. Particulars: time 6 day.

In assay [10] the test system is Plasmodium falciparum. The assay is described as follows: In vivo antimalarial activity against Plasmodium berghei K173 infected in mouse assessed as reduction in parasitemia at 100 mg/kg, ip measured after 6 days by giemsa staining based microscopic analysis relative to control. Particulars: time 6 day. It counts as functional. More on the design: scale not given: the % may be the effect or the level left.

Assay [11] concerns Plasmodium falciparum. Description: In vivo antimalarial activity against Plasmodium berghei K173 infected in mouse assessed as chemo-supression percentage at 50 mg/kg, ip by giemsa staining based microscopic analysis relative to control. It counts as functional.
Assay [12] relates to Plasmodium falciparum. The assay is described as follows: In vivo antimalarial activity against Plasmodium berghei K173 infected in mouse assessed as chemo-supression percentage at 100 mg/kg, ip by giemsa staining based microscopic analysis relative to control. In kind it is functional.
The subject of assay [13] is Aspergillus fumigatus. The assay is described as follows: Antifungal activity against Aspergillus fumigatus assessed as zone of inhibition. In kind it is functional.
In assay [14] the test system is Candida albicans. The assay is described as follows: Antifungal activity against Candida albicans assessed as zone of inhibition. In kind it is functional.
Assay [15] deals with Aspergillus fumigatus. The assay is described as follows: Antifungal activity against Aspergillus fumigatus. In kind it is functional.
Assay [16] relates to Candida albicans. Description: Antifungal activity against Candida albicans assessed as fungal growth inhibition. In kind it is functional.
Assay [17] has as its system Bacillus subtilis. Description: Antimicrobial activity against Bacillus subtilis. It counts as functional.
Assay [18] deals with Escherichia coli. The assay is described as follows: Antimicrobial activity against Escherichia coli assessed as inhibition of bacterial growth. In kind it is functional.
The test system of assay [19] is Staphylococcus aureus. The assay is described as follows: Antimicrobial activity against Staphylococcus aureus assessed as inhibition of bacterial growth. It counts as functional.
Assay [20] concerns Proteus vulgaris. The assay is described as follows: Antimicrobial activity against Proteus vulgaris assessed as inhibition of bacterial growth. In kind it is functional.
The test system of assay [21] is ASPC1. Description: Cytotoxicity against human ASPC1 cells. In kind it is functional, cell-based.
Assay [22] in a line: Cytotoxicity against human PBMC cells. In kind it is functional, cell-based.
Assay [23] concerns Jurkat. The assay is described as follows: Cytotoxicity against human Jurkat T cells. It counts as functional, cell-based.
Assay [24] concerns Bordetella bronchiseptica. The assay is described as follows: Antibacterial activity against Bordetella bronchiseptica ATCC 4617 by plate dilution method. It counts as functional.
Assay [25] concerns Candida albicans. The assay is described as follows: Antifungal activity against Candida albicans ATCC 2091 by plate dilution method relative to control. In kind it is functional.
Assay [26] concerns Aspergillus niger. Description: Antifungal activity against Aspergillus niger MTCC 281 by plate dilution method relative to control. In kind it is functional.
The subject of assay [27] is Aspergillus flavus. Description: Antifungal activity against Aspergillus flavus MTCC 277 by plate dilution method relative to control. It counts as functional.
The subject of assay [28] is Monascus purpureus. Description: Antifungal activity against Monascus purpureus MTCC 369 by plate dilution method relative to control. In kind it is functional.
The subject of assay [29] is Penicillium citrinum. The assay is described as follows: Antifungal activity against Penicillium citrinum NCIM 768 by plate dilution method relative to control. In kind it is functional.
Assay [30] concerns Staphylococcus aureus. Description: Antibacterial activity against Staphylococcus aureus ATCC 25923 by plate dilution method. It counts as functional.
Assay [31] has as its system Enterococcus faecalis. Description: Antibacterial activity against Enterococcus faecalis ATCC 29212 by plate dilution method. In kind it is functional.
Assay [32] relates to Staphylococcus epidermidis. Description: Antibacterial activity against Staphylococcus epidermidis ATCC 12228 by plate dilution method. In kind it is functional.
In assay [33] the test system is Bacillus subtilis. The assay is described as follows: Antibacterial activity against Bacillus subtilis ATCC 6633 by plate dilution method. In kind it is functional.
The subject of assay [34] is Bacillus cereus. Description: Antibacterial activity against Bacillus cereus ATCC 9946 by plate dilution method. It counts as functional.
Assay [35] deals with Escherichia coli. Description: Antibacterial activity against Escherichia coli ATCC 25922 by plate dilution method. In kind it is functional.
Assay [36] has as its system Pseudomonas aeruginosa. The assay is described as follows: Antibacterial activity against Pseudomonas aeruginosa ATCC 27853 by plate dilution method. In kind it is functional.
Assay [37] deals with Klebsiella pneumoniae. Description: Antibacterial activity against Klebsiella pneumoniae ATCC 700603 by plate dilution method. In kind it is functional.
Assay [38] deals with Proteus vulgaris. Description: Antibacterial activity against Proteus vulgaris ATCC 9920 by plate dilution method. In kind it is functional.
In assay [39] the test system is Escherichia coli. The assay is described as follows: Antibacterial activity against Escherichia coli by agar dilution method. It counts as functional. (In general: In agar dilution, organisms are placed on agar that contains the substance at set levels.)
Assay [40] concerns Pseudomonas aeruginosa. Description: Antibacterial activity against Pseudomonas aeruginosa by agar dilution method. In kind it is functional.
Assay [41] concerns Staphylococcus aureus. The assay is described as follows: Antibacterial activity against Staphylococcus aureus by agar dilution method. In kind it is functional.
Assay [42] has as its system Bacillus subtilis. The assay is described as follows: Antibacterial activity against Bacillus subtilis by agar dilution method. In kind it is functional.
In assay [43] the test system is Escherichia coli. Description: Potency index, ratio of ampicillin MIC to compound MIC for Escherichia coli by agar dilution method. It counts as functional.
Assay [44] concerns Staphylococcus aureus. Description: Potency index, ratio of ampicillin MIC to compound MIC for Staphylococcus aureus by agar dilution method. In kind it is functional.
For assay [45], the system named is Bacillus subtilis. Description: Potency index, ratio of ampicillin MIC to compound MIC for Bacillus subtilis by agar dilution method. It counts as functional.
The test system of assay [46] is Candida albicans. Description: Antifungal activity against Candida albicans by agar dilution method. It counts as functional.
For assay [47], the system named is Aspergillus niger. Description: Antifungal activity against Aspergillus niger by agar dilution method. It counts as functional.
The nature of assay [48]: Antioxidant activity assessed as DPPH radical scavenging activity. It counts as functional. (The DPPH test is a chemical assay of radical scavenging.)

In brackets after ≈: the same amount, converted by molar mass.

The compound `COc1cc(C2CC(c3cc4ccccc4oc3=O)=NN2c2ccccc2)cc(OC)c1OC` (stereo not drawn) had an IC50 in assay [1] of 11.6 µg/mL (≈ 25.5 µM). Moreover, the MIC in assay [2] was 10 µg/mL (≈ 21.9 µM); in assay [3], 12.5 µg/mL (≈ 27.4 µM); in assay [4] it was 12.5 µg/mL (≈ 27.4 µM).
In turn, `CC(=O)Oc1ccc2c(c1)CC[C@@H]1[C@@H]2CC[C@]2(C)C3=NN(c4ccccc4)C(c4cccs4)C3C[C@@H]12` (stereo partly drawn) gave an IC50 in assay [5] of 0.043 µM. Further, the Activity in assay [6] amounted to 87%.
`COc1cc(C)c(C2C=C(c3cc(OC)c(OC)c(OC)c3)N(C(=O)OC(C)C)N2C(=O)OC(C)C)cc1C(C)C` (stereo not drawn): the values for the IC50 in assay [7] and in assay [8] were less than 2 µM and 38.8 µM, respectively. Moreover, the Activity in assay [9] worked out at 8.03%; in [10] it was 4.62%; in assay [11] it was 25.29%; in assay [12] it was 55.6%.
Turning to `Clc1ccc(C2CC(c3cccs3)=NN2c2nc(-c3ccccc3)cs2)c(Cl)c1` (stereo not drawn), the “inhibition zone (IZ)” value in assay [13] stood at 28 mm; in assay [14] it was 23 mm. In addition, the MIC in assay [15] is 312 µg/mL (≈ 685 µM); in assay [16], 62.5 µg/mL (≈ 137 µM); in assay [17], 9.77 µg/mL (≈ 21.4 µM); in assay [18] it was 9.77 µg/mL (≈ 21.4 µM); in [19], 9.77 µg/mL (≈ 21.4 µM); in assay [20], 9.77 µg/mL (≈ 21.4 µM).
As for `Cc1ccc(-c2nnc(SCC(=O)N3N=C(c4cccs4)CC3c3ccc(Cl)cc3)o2)cc1` (stereo not drawn), the IC50 in assay [21] amounted to 16.8 µM; in assay [22] it was 1000 µM; in assay [23], 90 µM.
Consider `O=c1oc2ccc(F)cc2cc1-c1csc(N2N=C(c3ccc(F)cc3)CC2c2cc3ccccc3nc2Cl)n1` (stereo not drawn), for which the MIC in assay [24], in assay [30], in assay [31], in assay [32], in assay [33] and in assay [34] was 50 µg/mL (≈ 87.6 µM) in each case. The MIC in assay [35], in assay [36], in [37] and in [38] was 50 µg/mL (≈ 87.6 µM) each time. The Activity in assay [25] is listed as 98.95%; in [26], 83.59%; in assay [27], 98%; in assay [28], 79.72%; in assay [29], 91.42%.
Take `COc1cccc2cc(/C=C/C(=O)c3cc(Br)ccc3O)c3nnnn3c12`: the MIC in [39] amounted to 50 µg/mL (≈ 118 µM); in assay [40] it was 25 µg/mL (≈ 58.8 µM); in assay [41] it was 50 µg/mL (≈ 118 µM); in [42], 50 µg/mL (≈ 118 µM); in assay [46], 25 µg/mL (≈ 58.8 µM); in assay [47] it was 25 µg/mL (≈ 58.8 µM). For the same compound, the Ratio in [43] stood at 2; in assay [44] it was 5; in [45] it was 5. Further, in [48], the half-maximal inhibitory concentration (IC50) is 22.4 µg/mL (≈ 52.7 µM).
